{"source": "patent US8377691B2", "about": "(priority 2006, dated 2013)", "key": {"[1]": {"assay_type": "biochemical", "conditions": "for response to 30 mM K2SO4 after prior disruption of the lipoparticle structure: gramicidin (1 uM) or melittin (5 uM)"}, "[2]": {"target": "T1, Shaker(Δ6-46)T449V (Drosophila melanogaster, UniProt P08510, DEL6-46/T449V)", "T1 construct": "made in house; host or cells: 293 / HEK-293 cells co-transfected with MLV Gag", "T1 sequence (P08510 with tags, fused parts or gaps DEL6-46/T449V)": "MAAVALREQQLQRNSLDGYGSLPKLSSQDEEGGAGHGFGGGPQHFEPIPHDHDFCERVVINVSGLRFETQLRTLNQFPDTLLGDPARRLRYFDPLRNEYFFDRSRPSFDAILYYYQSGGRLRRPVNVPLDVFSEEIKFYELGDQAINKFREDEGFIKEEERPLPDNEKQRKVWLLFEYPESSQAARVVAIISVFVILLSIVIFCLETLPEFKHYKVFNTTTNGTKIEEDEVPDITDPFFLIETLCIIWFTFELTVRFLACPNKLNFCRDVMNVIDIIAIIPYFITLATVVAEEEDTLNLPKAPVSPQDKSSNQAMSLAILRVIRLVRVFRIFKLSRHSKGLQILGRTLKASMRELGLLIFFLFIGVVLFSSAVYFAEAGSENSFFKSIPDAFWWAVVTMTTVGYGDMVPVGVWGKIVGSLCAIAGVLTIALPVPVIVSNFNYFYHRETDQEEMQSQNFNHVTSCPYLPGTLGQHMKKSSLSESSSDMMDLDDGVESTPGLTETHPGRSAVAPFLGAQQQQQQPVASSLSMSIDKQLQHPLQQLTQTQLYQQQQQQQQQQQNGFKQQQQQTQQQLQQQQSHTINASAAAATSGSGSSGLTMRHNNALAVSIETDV", "assay_type": "biochemical", "conditions": "for Shaker activity: iberiotoxin (10 uM), margatoxin (10 uM); for lipoparticle Shaker activity: pre-treated with 10 nM toxin, duplicate experiments"}, "[3]": {"target": "T2, human KCNQ2/3 channel (Homo sapiens, UniProt O43525+O43526)", "T2 construct": "made in house", "assay_type": "biochemical"}, "[4]": {"target": "5HT3a cation channel (Homo sapiens, UniProt P46098)", "sequence (P46098 24-478)": "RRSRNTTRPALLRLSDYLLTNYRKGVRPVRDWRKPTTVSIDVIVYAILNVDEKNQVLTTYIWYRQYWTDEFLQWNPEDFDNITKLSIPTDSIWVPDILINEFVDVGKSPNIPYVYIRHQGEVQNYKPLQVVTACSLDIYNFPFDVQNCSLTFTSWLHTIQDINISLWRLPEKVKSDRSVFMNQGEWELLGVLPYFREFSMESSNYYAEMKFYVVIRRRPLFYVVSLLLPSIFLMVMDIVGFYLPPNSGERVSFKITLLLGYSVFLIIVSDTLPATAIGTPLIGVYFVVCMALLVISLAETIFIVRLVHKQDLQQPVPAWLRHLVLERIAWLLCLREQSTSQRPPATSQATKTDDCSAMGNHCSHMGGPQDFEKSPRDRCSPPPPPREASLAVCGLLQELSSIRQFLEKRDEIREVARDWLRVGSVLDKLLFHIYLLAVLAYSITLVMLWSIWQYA", "assay_type": "biochemical"}, "[5]": {"target": "A/M2/HK156/94 (Influenza A virus, UniProt O70632)", "sequence (O70632 whole entry, looked up)": "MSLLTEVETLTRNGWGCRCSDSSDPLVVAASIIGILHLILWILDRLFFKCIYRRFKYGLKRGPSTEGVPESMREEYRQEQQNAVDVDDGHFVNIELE", "experiment": "biochemical", "assay_type": "biochemical", "conditions": "for H+ transport across VLP membranes (fluorescence): pH 4.5"}, "[6]": {"target": "A/M2 Udorn72 (Influenza A virus, UniProt P0DOF5)", "sequence (P0DOF5 whole entry, looked up)": "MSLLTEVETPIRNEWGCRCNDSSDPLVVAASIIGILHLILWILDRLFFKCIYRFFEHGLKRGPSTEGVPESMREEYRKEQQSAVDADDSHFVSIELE", "assay_type": "biochemical", "conditions": "pH 4.5"}, "[7]": {"test_system": "M2", "conditions": "cited from earlier work"}, "[8]": {"target": "M2 viral ion channel, Influenza A (Udorn/72) virions (Influenza A virus, UniProt P0DOF5)", "sequence (P0DOF5 whole entry, looked up)": "as above", "assay_type": "biochemical"}, "[9]": {"target": "T3, Shaker T449K mutant (Drosophila melanogaster, UniProt P08510, T449K)", "T3 construct": "made in house", "T3 sequence (P08510 whole entry T449K)": "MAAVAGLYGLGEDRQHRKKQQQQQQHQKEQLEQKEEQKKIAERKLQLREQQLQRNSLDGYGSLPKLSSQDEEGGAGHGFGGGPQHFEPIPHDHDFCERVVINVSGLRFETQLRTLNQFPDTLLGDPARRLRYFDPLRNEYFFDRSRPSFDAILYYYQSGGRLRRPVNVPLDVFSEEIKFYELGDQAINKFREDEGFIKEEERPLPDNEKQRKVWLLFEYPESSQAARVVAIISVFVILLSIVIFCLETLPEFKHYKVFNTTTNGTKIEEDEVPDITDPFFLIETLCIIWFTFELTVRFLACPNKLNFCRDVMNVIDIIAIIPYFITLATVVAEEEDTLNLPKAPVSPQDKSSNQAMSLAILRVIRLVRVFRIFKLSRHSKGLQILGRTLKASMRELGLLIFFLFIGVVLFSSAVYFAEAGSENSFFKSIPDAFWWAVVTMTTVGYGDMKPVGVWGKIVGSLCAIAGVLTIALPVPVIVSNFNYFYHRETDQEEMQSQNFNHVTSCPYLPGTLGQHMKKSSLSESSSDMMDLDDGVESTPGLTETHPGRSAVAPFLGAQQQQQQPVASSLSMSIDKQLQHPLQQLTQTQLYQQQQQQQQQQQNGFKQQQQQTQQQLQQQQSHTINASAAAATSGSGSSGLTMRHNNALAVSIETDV", "assay_type": "biochemical", "conditions": "10 nM CHTX pre-treatment"}, "[10]": {"target": "Shaker (Drosophila melanogaster, UniProt P08510)", "sequence (P08510 whole entry)": "as the sequence (P08510 whole entry T449K) above, with K449T counted along it", "conditions": "cited from earlier work"}}, "note": "“Also recorded” adds a separate entry of the source. Where two headings read alike, the source gives them in different places.", "data": [{"compound": "gramicidin", "values": [{"measurement": "response to 30 mM K2SO4 after prior disruption of the lipoparticle structure", "setting": "[1]", "value": "eliminated the response"}]}, {"compound": "margatoxin (TIINVKCTSPKQCLPPCKAQFGQSAGAKCMNGKCKCYPH; UniProt P40755 1-39, looked up)", "values": [{"measurement": "Shaker activity", "setting": "[2]", "value": "did not inhibit Shaker activity"}, {"measurement": "lipoparticle Shaker activity", "setting": "[2]; 30 mM K2SO4", "value": "do not influence"}]}, {"compound": "CC[C@H](C)[C@H](NC(=O)CN)C(=O)NCC(=O)N[C@@H](C)C(=O)N[C@H](C(=O)N[C@@H](CC(C)C)C(=O)N[C@@H](CCCCN)C(=O)N[C@H](C(=O)N[C@@H](CC(C)C)C(=O)N[C@H](C(=O)N[C@H](C(=O)NCC(=O)N[C@@H](CC(C)C)C(=O)N1CCC[C@H]1C(=O)N[C@@H](C)C(=O)N[C@@H](CC(C)C)C(=O)N[C@H](C(=O)N[C@@H](CO)C(=O)N[C@@H](Cc1c[nH]c2ccccc12)C(=O)N[C@H](C(=O)N[C@@H](CCCCN)C(=O)N[C@@H](CCCNC(=N)N)C(=O)N[C@@H](CCCCN)C(=O)N[C@@H](CCCNC(=N)N)C(=O)N[C@@H](CCC(N)=O)C(=O)N[C@@H](CCC(N)=O)C(N)=O)[C@@H](C)CC)[C@@H](C)CC)[C@@H](C)O)[C@@H](C)O)C(C)C)C(C)C", "note": "[melittin]", "values": [{"measurement": "response to 30 mM K2SO4 after prior disruption of the lipoparticle structure", "setting": "[1]", "value": "eliminated the response"}]}, {"compound": "iberiotoxin (QFTDVDCSVSKECWSVCKDLFGVDRGKCMGKKCRCYQ; UniProt P24663 1-37, looked up)", "values": [{"measurement": "Shaker activity", "setting": "[2]", "value": "did not inhibit Shaker activity"}, {"measurement": "lipoparticle Shaker activity", "setting": "[2]; 30 mM K2SO4", "value": "do not influence"}]}, {"compound": "[Ba+2].[Cl-].[Cl-]", "note": "[BaCl2]", "values": [{"measurement": "fluorescent signal on K+ addition", "setting": "[3]; 20 mM BaCl2", "value": "inhibition"}, {"measurement": "fluorescent signal on K+ addition", "setting": "[3]; 120 mM BaCl2 pre-treatment", "value": "capable of inhibiting the fluorescent signal"}]}, {"compound": "COc1cc2c3cc1Oc1cc(ccc1O)C[C@@H]1c4c(cc(OC)c(O)c4Oc4ccc(cc4)C[C@@H]3N(C)CC2)CC[N+]1(C)C", "note": "[tubocurarine]", "values": [{"measurement": "fluorescent signal on Na+ addition", "setting": "[4]", "value": "capable of inhibiting the fluorescent signal; also recorded: inhibition"}]}, {"compound": "CC(C)[C@@H]1NC(=O)[C@H](C)OC(=O)[C@@H](C(C)C)NC(=O)[C@@H](C(C)C)OC(=O)[C@H](C(C)C)NC(=O)[C@H](C)OC(=O)[C@@H](C(C)C)NC(=O)[C@@H](C(C)C)OC(=O)[C@H](C(C)C)NC(=O)[C@H](C)OC(=O)[C@@H](C(C)C)NC(=O)[C@@H](C(C)C)OC1=O", "note": "[Valinomycin, valinomycin]", "values": [{"measurement": "fluorescent signal on K+ exposure (normalized to baseline)", "setting": "[1]; valinomycin-treated null-lipoparticles, twelve replicates, microplate, mean+/−standard deviation, untreated 1.023+/−0.009", "value": "1.347+/−0.036"}]}, {"compound": "CC(N)C12CC3CC(CC(C3)C1)C2", "note": "(stereo not drawn) [rimantadine]", "values": [{"measurement": "Hillslope of inhibition curve", "setting": "[5]", "value": "−1.1"}, {"measurement": "IC50", "setting": "[5]", "value": 180, "unit": "nM"}, {"measurement": "mean change in fluorescence resulting from MES addition", "setting": "[5]", "value": "−432±167"}, {"measurement": "H+ transport across VLP membranes (fluorescence)", "setting": "[5]", "value": "abrogated the subsequent movement of H^+"}, {"measurement": "H+ transport fluorescence signal", "setting": "[6]", "value": "inhibited the fluorescent response; also recorded: abrogated the subsequent movement of H^+; also recorded: completely abrogated"}, {"measurement": "potency relative to amantadine reported in the literature", "setting": "[7]; more potent than amantadine", "value": "approximately 10 times"}]}, {"compound": "NCCc1c[nH]c2ccc(O)cc12", "note": "[serotonin]", "values": [{"measurement": "dependence of the fluorescent signal on the ligand", "setting": "[4]", "value": "dependent upon the presence; also recorded: omission of the ion channel ligand, serotonin, from the assay mix resulted in no change in fluorescence intensity"}]}, {"compound": "NC12CC3CC(CC(C3)C1)C2", "note": "[amantadine]", "values": [{"measurement": "Hillslope of inhibition curve", "setting": "[5]", "value": "−0.71"}, {"measurement": "IC50", "setting": "[5]", "value": 980, "unit": "nM"}, {"measurement": "mean change in fluorescence resulting from MES addition", "setting": "[5]", "value": "314±206"}, {"measurement": "H+ transport across VLP membranes (fluorescence)", "setting": "[5]", "value": "abrogated the subsequent movement of H^+; also recorded: in the absence, but not in the presence of amantadine"}, {"measurement": "H+ transport fluorescence signal", "setting": "[6]", "value": "inhibited the fluorescent response; also recorded: abrogated the subsequent movement of H^+; also recorded: completely abrogated"}, {"measurement": "fluorescent signal (membrane potential response) on low pH challenge", "setting": "[8]", "value": "attenuated the fluorescent signal in a dose-dependent fashion; also recorded: inhibited"}, {"measurement": "IC50", "setting": "[7]; other measures of M2 function, such as plaque assay, read-out: IC50 reported in the literature", "value": "1000 to 10000", "unit": "nM"}]}, {"compound": "charybdotoxin [CHTX]", "values": [{"measurement": "Shaker conductance of K+ across lipoparticle membranes", "setting": "[2]; 10 nM CHTX pre-incubation, 30 mM K2SO4", "value": "completely inhibited"}, {"measurement": "inhibition of the fluorescent signal over a concentration range", "setting": "[2]; CHTX 100 pM to 10 nM, 10 ug Shaker plasmid", "value": "concentration-dependent inhibition"}, {"measurement": "low concentration at which inhibition of membrane depolarization was evident", "setting": "[2]; lipoparticles produced using 10 ug Shaker plasmid, 30 mM K2SO4", "value": 0.1, "unit": "nM"}, {"measurement": "fluorescent signal on K+ addition", "setting": "[9]", "value": "capable of inhibiting the fluorescent signal; also recorded: inhibition"}, {"measurement": "effect of channel inhibitor on valinomycin-mediated K+ movement (specificity control)", "setting": "[1]; null-lipoparticles pre-treated with 1 uM valinomycin, CHTX up to 10 nM, tubocurarine", "value": "did not influence; also recorded: had no effect"}, {"measurement": "CHTX inhibition of Shaker in cells reported in the literature", "setting": "[10]", "value": "~3.6", "unit": "nM"}]}]}
